Several values for one entry are separate records, joined by “and”; a condition that tells them apart may be missing. Equal entries are not always repeated. Each block holds one compound with its values, some of them ahead of it.
Tested on: 292921-168-R-J2-PDC complex spheroid viability
Experiment: Anticancer human tumor 292921-168-R-J2-PDC patient-derived pancreatic carcinoma cell line growth inhibition
Conditions: for viability, T/C: stronger effect = lower value
Summary of the method: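 Complex spheroids of tumor cells with HUVEC and human MSCs, exposed to iadademstat combined with other agents. Each agent tested in half-log steps from near clinical Cmax (else 10 microM top), DMSO ≤0.25%.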

[1] = curve of first compound, second compound 0.1 µM
[2] = curve of first compound, second compound 0.316 µM
[3] = curve of first compound, second compound 1 µM
[4] = curve of first compound, second compound 3.16 µM
[5] = curve of first compound, second compound 10 µM
[6] = second compound 0.1 µM, first compound 0.0316 µM
[7] = second compound 0.1 µM, first compound 0.1 µM
[8] = second compound 0.1 µM, first compound 0.316 µM
[9] = second compound 0.1 µM, first compound 1 µM
[10] = second compound 0.1 µM, first compound 3.16 µM
[11] = second compound 0.1 µM, first compound 10 µM
[12] = second compound 0.316 µM, first compound 0.0316 µM
[13] = second compound 0.316 µM, first compound 0.1 µM
[14] = second compound 0.316 µM, first compound 0.316 µM
[15] = second compound 0.316 µM, first compound 1 µM
[16] = second compound 0.316 µM, first compound 3.16 µM
[17] = second compound 0.316 µM, first compound 10 µM
[18] = second compound 1 µM, first compound 0.0316 µM
[19] = second compound 1 µM, first compound 0.1 µM
[20] = second compound 1 µM, first compound 0.316 µM
[21] = second compound 1 µM, first compound 1 µM
[22] = second compound 1 µM, first compound 3.16 µM
[23] = second compound 1 µM, first compound 10 µM
[24] = second compound 3.16 µM, first compound 0.0316 µM
[25] = second compound 3.16 µM, first compound 0.1 µM
[26] = second compound 3.16 µM, first compound 0.316 µM
[27] = second compound 3.16 µM, first compound 1 µM
[28] = second compound 3.16 µM, first compound 3.16 µM
[29] = second compound 3.16 µM, first compound 10 µM
[30] = second compound 10 µM, first compound 0.0316 µM
[31] = second compound 10 µM, first compound 0.1 µM
[32] = second compound 10 µM, first compound 0.316 µM
[33] = second compound 10 µM, first compound 1 µM
[34] = second compound 10 µM, first compound 3.16 µM
[35] = second compound 10 µM, first compound 10 µM
[36] = second compound 0.1 µM, first compound 0.00316 µM
[37] = second compound 0.1 µM, first compound 0.01 µM
[38] = second compound 0.316 µM, first compound 0.00316 µM
[39] = second compound 0.316 µM, first compound 0.01 µM
[40] = second compound 1 µM, first compound 0.00316 µM
[41] = second compound 1 µM, first compound 0.01 µM
[42] = second compound 3.16 µM, first compound 0.00316 µM
[43] = second compound 3.16 µM, first compound 0.01 µM
[44] = second compound 10 µM, first compound 0.00316 µM
[45] = second compound 10 µM, first compound 0.01 µM
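Further: seven day compound exposure before luminescent viability read.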
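Wherever viability, T/C is given: 100% = DMSO vehicle control wells.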

Compound: COc1ccc([C@@H](O)c2cc(-c3ncnc4cc(N5CCOCC5)ccc34)c(F)cc2Cl)nn1 + NC1CCC(NC2CC2c2ccccc2)CC1
IC50 [1]: 205 nM
IC50 [2]: 191 nM
IC50 [3]: 102 nM
IC50 [4]: 101 nM
IC50 [5]: 35 nM
viability, T/C [6]: 61.8%
viability, T/C [7]: 61.3%
viability, T/C [8]: 42.7%
viability, T/C [9]: 30.4%
viability, T/C [10]: 19.9%
viability, T/C [11]: 11.7%
viability, T/C [12]: 61.1%
viability, T/C [13]: 57.7%
viability, T/C [14]: 44.4%
viability, T/C [15]: 26.2%
viability, T/C [16]: 17.1%
viability, T/C [17]: 11.8%
viability, T/C [18]: 59.9%
viability, T/C [19]: 50.4%
viability, T/C [20]: 38.1%
viability, T/C [21]: 24.9%
viability, T/C [22]: 18.4%
viability, T/C [23]: 11.2%
viability, T/C [24]: 50%
viability, T/C [25]: 53.7%
viability, T/C [26]: 40.4%
viability, T/C [27]: 27.1%
viability, T/C [28]: 16.4%
viability, T/C [29]: 10.7%
viability, T/C [30]: 48.6%
viability, T/C [31]: 50%
viability, T/C [32]: 36.2%
viability, T/C [33]: 28.2%
viability, T/C [34]: 18.1%
viability, T/C [35]: 11.6%

Compound: Cn1ncnc1C1c2n[nH]c(=O)c3cc(F)cc(c23)NC1c1ccc(F)cc1 (configuration not stated) + NC1CC1c1ccc(-c2cccc(O)c2)cc1
IC50 [1]: > 100 nM
IC50 [2]: > 100 nM
IC50 [3]: > 100 nM
IC50 [4]: > 100 nM
IC50 [5]: 6.46 nM
viability, T/C (second compound 0.1 µM, first compound 0.000316 µM): 87.2%
viability, T/C (second compound 0.1 µM, first compound 0.001 µM): 83.4%
viability, T/C [36]: 76.7%
viability, T/C [37]: 71.2%
viability, T/C [6]: 67.3%
viability, T/C [7]: 65.5%
viability, T/C (second compound 0.316 µM, first compound 0.000316 µM): 71%
viability, T/C (second compound 0.316 µM, first compound 0.001 µM): 75%
viability, T/C [38]: 67%
viability, T/C [39]: 63.4%
viability, T/C [12]: 57.8%
viability, T/C [13]: 62.2%
viability, T/C (second compound 1 µM, first compound 0.000316 µM): 72.2%
viability, T/C (second compound 1 µM, first compound 0.001 µM): 62.8%
viability, T/C [40]: 67.3%
viability, T/C [41]: 58.1%
viability, T/C [18]: 64%
viability, T/C [19]: 60.3%
viability, T/C (second compound 3.16 µM, first compound 0.000316 µM): 69.2%
viability, T/C (second compound 3.16 µM, first compound 0.001 µM): 64.2%
viability, T/C [42]: 59.7%
viability, T/C [43]: 54.5%
viability, T/C [24]: 50.5%
viability, T/C [25]: 52.5%
viability, T/C (second compound 10 µM, first compound 0.000316 µM): 51.9%
viability, T/C (second compound 10 µM, first compound 0.001 µM): 58%
viability, T/C [44]: 51.9%
viability, T/C [45]: 48.3%
viability, T/C [30]: 43.6%
viability, T/C [31]: 43.6%

Compound: Nc1ncn(C2CC(O)C(CO)O2)c(=O)n1 (configuration not stated) + NC1CCC(NC2CC2c2ccccc2)CC1
IC50 [1]: 279 nM
IC50 [2]: 103 nM
IC50 [3]: 64 nM
IC50 [4]: 105 nM
IC50 [5]: 40.5 nM
viability, T/C [36]: 63.8%
viability, T/C [37]: 70.5%
viability, T/C [6]: 62.2%
viability, T/C [7]: 49.6%
viability, T/C [8]: 50.2%
viability, T/C [9]: 44.2%
viability, T/C [38]: 67%
viability, T/C [39]: 69%
viability, T/C [12]: 61.5%
viability, T/C [13]: 49.8%
viability, T/C [14]: 46.6%
viability, T/C [15]: 42.6%
viability, T/C [40]: 59.7%
viability, T/C [41]: 58.6%
viability, T/C [18]: 52.8%
viability, T/C [19]: 45.2%
viability, T/C [20]: 47%
viability, T/C [21]: 42.7%
viability, T/C [42]: 54.8%
viability, T/C [43]: 53.9%
viability, T/C [24]: 55.1%
viability, T/C [25]: 52.3%
viability, T/C [26]: 41.3%
viability, T/C [27]: 35.6%
viability, T/C [44]: 53.1%
viability, T/C [45]: 57.4%
viability, T/C [30]: 49.3%
viability, T/C [31]: 45.8%
viability, T/C [32]: 36%
viability, T/C [33]: 35.4%

Compound: NS(=O)(=O)OCC1CC(n2ccc3c(NC4CCc5ccccc54)ncnc32)CC1O (configuration not stated) + NC1CCC(NC2CC2c2ccccc2)CC1
IC50 [1]: 16.8 nM
IC50 [2]: 16.7 nM
IC50 [3]: 16.1 nM
IC50 [4]: 15.3 nM
IC50 [5]: 12.8 nM
viability, T/C (second compound 0.1 µM, first compound 0.00949 µM): 83.8%
viability, T/C (second compound 0.1 µM, first compound 0.03 µM): 15.6%
viability, T/C (second compound 0.1 µM, first compound 0.0949 µM): 3.97%
viability, T/C (second compound 0.1 µM, first compound 0.3 µM): 1.88%
viability, T/C (second compound 0.1 µM, first compound 0.949 µM): 1.9%
viability, T/C (second compound 0.1 µM, first compound 3 µM): 2.04%
viability, T/C (second compound 0.316 µM, first compound 0.00949 µM): 83.4%
viability, T/C (second compound 0.316 µM, first compound 0.03 µM): 15.3%
viability, T/C (second compound 0.316 µM, first compound 0.0949 µM): 4.75%
viability, T/C (second compound 0.316 µM, first compound 0.3 µM): 3.14%
viability, T/C (second compound 0.316 µM, first compound 0.949 µM): 2.25%
viability, T/C (second compound 0.316 µM, first compound 3 µM): 1.88%
viability, T/C (second compound 1 µM, first compound 0.00949 µM): 77.6%
viability, T/C (second compound 1 µM, first compound 0.03 µM): 17.4%
viability, T/C (second compound 1 µM, first compound 0.0949 µM): 4.76%
viability, T/C (second compound 1 µM, first compound 0.3 µM): 2.36%
viability, T/C (second compound 1 µM, first compound 0.949 µM): 2.12%
viability, T/C (second compound 1 µM, first compound 3 µM): 1.71%
viability, T/C (second compound 3.16 µM, first compound 0.00949 µM): 72.7%
viability, T/C (second compound 3.16 µM, first compound 0.03 µM): 18.4%
viability, T/C (second compound 3.16 µM, first compound 0.0949 µM): 4.6%
viability, T/C (second compound 3.16 µM, first compound 0.3 µM): 2.14%
viability, T/C (second compound 3.16 µM, first compound 0.949 µM): 1.54%
viability, T/C (second compound 3.16 µM, first compound 3 µM): 1.63%
viability, T/C (second compound 10 µM, first compound 0.00949 µM): 62.3%
viability, T/C (second compound 10 µM, first compound 0.03 µM): 15.6%
viability, T/C (second compound 10 µM, first compound 0.0949 µM): 4.83%
viability, T/C (second compound 10 µM, first compound 0.3 µM): 2.29%
viability, T/C (second compound 10 µM, first compound 0.949 µM): 1.42%
viability, T/C (second compound 10 µM, first compound 3 µM): 0.82%

Compound: CC(C)c1c(-c2ccccc2)nc2c(C#N)c[nH]n2c1=O + NC1CCC(NC2CC2c2ccccc2)CC1
IC50 [1]: > 10000 nM
IC50 [2]: > 10000 nM
IC50 [3]: > 10000 nM
IC50 [4]: 9720 nM
IC50 [5]: 1680 nM
viability, T/C [6]: 63.4%
viability, T/C [7]: 67.2%
viability, T/C [8]: 59.7%
viability, T/C [9]: 70%
viability, T/C [10]: 61.1%
viability, T/C [11]: 57%
viability, T/C [12]: 63.1%
viability, T/C [13]: 60.1%
viability, T/C [14]: 63.6%
viability, T/C [15]: 64.2%
viability, T/C [16]: 64.2%
viability, T/C [17]: 51.3%
viability, T/C [18]: 52.7%
viability, T/C [19]: 55.4%
viability, T/C [20]: 54.2%
viability, T/C [21]: 57.5%
viability, T/C [22]: 57.4%
viability, T/C [23]: 51.6%
viability, T/C [24]: 55.7%
viability, T/C [25]: 55.3%
viability, T/C [26]: 52.8%
viability, T/C [27]: 56.1%
viability, T/C [28]: 49%
viability, T/C [29]: 49.9%
viability, T/C [30]: 52.9%
viability, T/C [31]: 53.8%
viability, T/C [32]: 53.2%
viability, T/C [33]: 54.6%
viability, T/C [34]: 45.6%
viability, T/C [35]: 40%

IC50 (curve of compound): > 100 nM
Compound: Cn1ncnc1C1c2n[nH]c(=O)c3cc(F)cc(c23)NC1c1ccc(F)cc1 (configuration not stated)
viability, T/C (compound 0.000316 µM): 86.8% and 103%
viability, T/C (compound 0.001 µM): 102% and 101%
viability, T/C (compound 0.00316 µM): 94.5% and 96.3%
viability, T/C (compound 0.01 µM): 93.9% and 94.8%
viability, T/C (compound 0.0316 µM): 85.9% and 88.3%
viability, T/C (compound 0.1 µM): 82.3% and 83.5%

Reference: PubChem BioAssay AID1918934 (Molecular Pharmacology Branch, DTP, NCI, 2023)
